Test results reported in patent publication US20100099561A1, “HETEROBICYCLIC ALKYLTHIO-BRIDGED ISOXAZOLINES” (E.I. DU PONT DE NEMOURS AND COMPANY, priority 2008, published 2010).

What was measured:
Type in all cases: in vivo
[1] = tested on: velvetleaf (Abutilon theophrasti); test: Test B preemergence, velvetleaf; details: Preemergence, scale 0 to 100
In short: (§1)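 Visually scored percent control (0–100) after 13 to 15 days in a greenhouse, following preemergence application of compound formulated with surfactant in a non-phytotoxic solvent to seeds in loam soil/sand.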

[2] = tested on: morningglory (Ipomoea coccinea); test: Test B preemergence, morningglory; details: scale 0 to 100
In short: as §1

[3] = tested on: yellow nutsedge (Cyperus esculentus); test: Test B preemergence, yellow nutsedge; details: scale 0 to 100
In short: as §1

[4] = tested on: wheat (Triticum aestivum); test: Test A preemergence, wheat; details: 0 to 100 scale (0 no effect, 100 complete control)
In short: (§2)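 Seeds sown in loam soil–sand blend; test chemicals in non-phytotoxic solvent mixture with surfactant applied preemergence as directed soil spray, or postemergence to plants 2–10 cm tall at one- to two-leaf stage. Greenhouse, ~10 days; visual injury rated against untreated controls, 0 (no effect) to 100 (complete control).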

[5] = tested on: lambsquarters (Chenopodium album); test: Test B preemergence, lambsquarters; details: scale 0 to 100
In short: as §1

[6] = tested on: corn (Zea mays); test: Test A preemergence, corn; details: 0 to 100 scale (0 no effect, 100 complete control)
In short: as §2

[7] = tested on: giant foxtail (Setaria faberi); test: Test A postemergence, giant foxtail; details: 0 to 100 scale (0 no effect, 100 complete control)
In short: as §2

[8] = tested on: wheat (Triticum aestivum); test: Test A postemergence, wheat; details: 0 to 100 scale (0 no effect, 100 complete control)
In short: as §2

[9] = tested on: large crabgrass (Digitaria sanguinalis); test: Test A postemergence, large crabgrass; details: 0 to 100 scale (0 no effect, 100 complete control)
In short: as §2

[10] = tested on: large crabgrass (Digitaria sanguinalis); test: Test A preemergence, large crabgrass; details: 0 to 100 scale (0 no effect, 100 complete control)
In short: as §2

[11] = tested on: downy bromegrass (Bromus tectorum); test: Test B preemergence, downy bromegrass; details: scale 0 to 100
In short: as §1

[12] = tested on: rice (Oryza sativa); test: Test B flooded paddy test, rice; details: Flood, scale 0 to 100
In short: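 Paddy-water application to 2-leaf plants in pots held under 3 cm of flooding; response is a 0–100 visual control rating against controls after 13 to 15 days, and a dash marks a missing result.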

[13] = tested on: blackgrass (Alopecurus myosuroides); test: Test B preemergence, blackgrass; details: scale 0 to 100
In short: as §1

[14] = tested on: corn (Zea mays); test: Test B preemergence, corn; details: scale 0 to 100
In short: as §1

[15] = tested on: soybean (Glycine max); test: Test B preemergence, soybean; details: Preemergence, scale 0 to 100
In short: as §1

[16] = tested on: nightshade (eastern black nightshade, Solanum ptycanthum); test: Test B preemergence, nightshade; details: scale 0 to 100
In short: as §1

[17] = tested on: pigweed (Amaranthus retroflexus); test: Test A postemergence, pigweed; details: 0 to 100 scale (0 no effect, 100 complete control)
In short: as §2

[18] = tested on: barnyardgrass (Echinochloa crus-galli); test: Test A postemergence, barnyardgrass; details: 0 to 100 scale (0 no effect, 100 complete control)
In short: as §2

[19] = tested on: velvetleaf (Abutilon theophrasti); test: Test A postemergence, velvetleaf; details: 0 to 100 scale (0 no effect, 100 complete control)
In short: as §2

[20] = tested on: large crabgrass (Digitaria sanguinalis); test: Test B preemergence, large crabgrass; details: scale 0 to 100
In short: as §1

CC1(C)CC(S(=O)(=O)Cc2c(C(F)(F)C(F)(F)F)nc3n(c2=O)CCCC3)=NO1 [Compound 21]
Plant response rating, Velvetleaf ([1]; 16 g ai/ha): 0 | Plant response rating, Velvetleaf ([1]; 31 g ai/ha): 0 | Plant response rating, Velvetleaf ([1]; 62 g ai/ha): 0 | Plant response rating, Velvetleaf ([1]; 125 g ai/ha): 75 | Plant response rating, Morningglory ([2]; 16 g ai/ha): 0 | Plant response rating, Morningglory ([2]; 31 g ai/ha): 10 | Plant response rating, Morningglory ([2]; 62 g ai/ha): 80 | Plant response rating, Morningglory ([2]; 125 g ai/ha): 100 | Plant response rating, Nutsedge, Yellow ([3]; 16 g ai/ha): 0 | Plant response rating, Nutsedge, Yellow ([3]; 31 g ai/ha): 20 | Plant response rating, Nutsedge, Yellow ([3]; 62 g ai/ha): 60 | Plant response rating, Nutsedge, Yellow ([3]; 125 g ai/ha): 90 | Plant response rating, Wheat ([4]; 125 g ai/ha): 0 | Plant response rating, Wheat ([4]; 500 g ai/ha): 40 | Plant response rating, Lambsquarters ([5]; 16 g ai/ha): 0 | Plant response rating, Lambsquarters ([5]; 31 g ai/ha): 0 | Plant response rating, Lambsquarters ([5]; 62 g ai/ha): 0 | Plant response rating, Lambsquarters ([5]; 125 g ai/ha): 98 | Plant response rating, Corn ([6]; 125 g ai/ha): 0 | Plant response rating, Corn ([6]; 500 g ai/ha): 0 | Plant response rating, Foxtail, Giant ([7]; 125 g ai/ha): 60 | Plant response rating, Foxtail, Giant ([7]; 500 g ai/ha): 70 | Plant response rating, Wheat ([8]; 125 g ai/ha): 0 | Plant response rating, Wheat ([8]; 500 g ai/ha): 20 | Plant response rating, Crabgrass, Large ([9]; 125 g ai/ha): 50 | Plant response rating, Crabgrass, Large ([9]; 500 g ai/ha): 80 | Plant response rating, Crabgrass, Large ([10]; 125 g ai/ha): 90 | Plant response rating, Crabgrass, Large ([10]; 500 g ai/ha): 100 | Plant response rating, Bromegrass, Downy ([11]; 16 g ai/ha): 0 | Plant response rating, Bromegrass, Downy ([11]; 31 g ai/ha): 0 | Plant response rating, Bromegrass, Downy ([11]; 62 g ai/ha): 0 | Plant response rating, Bromegrass, Downy ([11]; 125 g ai/ha): 60 | Plant response rating, Rice ([12]; 62 g ai/ha): 0 | Plant response rating, Rice ([12]; 250 g ai/ha): 0 | Plant response rating, Blackgrass ([13]; 16 g ai/ha): 40 | Plant response rating, Blackgrass ([13]; 31 g ai/ha): 40 | Plant response rating, Blackgrass ([13]; 62 g ai/ha): 50 | Plant response rating, Blackgrass ([13]; 125 g ai/ha): 98 | Plant response rating, Corn ([14]; 16 g ai/ha): 0 | Plant response rating, Corn ([14]; 31 g ai/ha): 0 | Plant response rating, Corn ([14]; 62 g ai/ha): 0 | Plant response rating, Corn ([14]; 125 g ai/ha): 10 | Plant response rating, Soybean ([15]; 16 g ai/ha): 0 | Plant response rating, Soybean ([15]; 31 g ai/ha): 0 | Plant response rating, Soybean ([15]; 62 g ai/ha): 0 | Plant response rating, Soybean ([15]; 125 g ai/ha): 0 | Plant response rating, Nightshade ([16]; 16 g ai/ha): 50 | Plant response rating, Nightshade ([16]; 31 g ai/ha): 50 | Plant response rating, Nightshade ([16]; 62 g ai/ha): 75 | Plant response rating, Nightshade ([16]; 125 g ai/ha): 90 | Plant response rating, Pigweed ([17]; 125 g ai/ha): 0 | Plant response rating, Pigweed ([17]; 500 g ai/ha): 10 | Plant response rating, Barnyardgrass ([18]; 125 g ai/ha): 70 | Plant response rating, Barnyardgrass ([18]; 500 g ai/ha): 90 | Plant response rating, Velvetleaf ([19]; 125 g ai/ha): 0 | Plant response rating, Velvetleaf ([19]; 500 g ai/ha): 10 | Plant response rating, Crabgrass, Large ([20]; 16 g ai/ha): 20 | Plant response rating, Crabgrass, Large ([20]; 31 g ai/ha): 95 | Plant response rating, Crabgrass, Large ([20]; 62 g ai/ha): 98 | Plant response rating, Crabgrass, Large ([20]; 125 g ai/ha): 100

CC1(C)CC(S(=O)(=O)Cc2c(C(F)(F)C(F)(F)F)nc3n(c2=O)CCC3)=NO1 [Compound 22]
Plant response rating, Velvetleaf ([1]; 16 g ai/ha): 0 | Plant response rating, Velvetleaf ([1]; 31 g ai/ha): 0 | Plant response rating, Velvetleaf ([1]; 62 g ai/ha): 60 | Plant response rating, Velvetleaf ([1]; 125 g ai/ha): 100 | Plant response rating, Morningglory ([2]; 16 g ai/ha): 0 | Plant response rating, Morningglory ([2]; 31 g ai/ha): 0 | Plant response rating, Morningglory ([2]; 62 g ai/ha): 70 | Plant response rating, Morningglory ([2]; 125 g ai/ha): 100 | Plant response rating, Nutsedge, Yellow ([3]; 16 g ai/ha): 0 | Plant response rating, Nutsedge, Yellow ([3]; 31 g ai/ha): 10 | Plant response rating, Nutsedge, Yellow ([3]; 62 g ai/ha): 60 | Plant response rating, Nutsedge, Yellow ([3]; 125 g ai/ha): 80 | Plant response rating, Wheat ([4]; 125 g ai/ha): 0 | Plant response rating, Wheat ([4]; 500 g ai/ha): 50 | Plant response rating, Lambsquarters ([5]; 16 g ai/ha): 0 | Plant response rating, Lambsquarters ([5]; 31 g ai/ha): 0 | Plant response rating, Lambsquarters ([5]; 62 g ai/ha): 70 | Plant response rating, Lambsquarters ([5]; 125 g ai/ha): 100 | Plant response rating, Corn ([6]; 125 g ai/ha): 0 | Plant response rating, Corn ([6]; 500 g ai/ha): 0 | Plant response rating, Foxtail, Giant ([7]; 125 g ai/ha): 70 | Plant response rating, Foxtail, Giant ([7]; 500 g ai/ha): 80 | Plant response rating, Wheat ([8]; 125 g ai/ha): 20 | Plant response rating, Wheat ([8]; 500 g ai/ha): 50 | Plant response rating, Crabgrass, Large ([9]; 125 g ai/ha): 70 | Plant response rating, Crabgrass, Large ([9]; 500 g ai/ha): 80 | Plant response rating, Crabgrass, Large ([10]; 125 g ai/ha): 90 | Plant response rating, Crabgrass, Large ([10]; 500 g ai/ha): 100 | Plant response rating, Bromegrass, Downy ([11]; 16 g ai/ha): 0 | Plant response rating, Bromegrass, Downy ([11]; 31 g ai/ha): 0 | Plant response rating, Bromegrass, Downy ([11]; 62 g ai/ha): 0 | Plant response rating, Bromegrass, Downy ([11]; 125 g ai/ha): 60 | Plant response rating, Rice ([12]; 62 g ai/ha): 0 | Plant response rating, Rice ([12]; 250 g ai/ha): 10 | Plant response rating, Blackgrass ([13]; 16 g ai/ha): 0 | Plant response rating, Blackgrass ([13]; 31 g ai/ha): 40 | Plant response rating, Blackgrass ([13]; 62 g ai/ha): 40 | Plant response rating, Blackgrass ([13]; 125 g ai/ha): 98 | Plant response rating, Corn ([14]; 16 g ai/ha): 0 | Plant response rating, Corn ([14]; 31 g ai/ha): 0 | Plant response rating, Corn ([14]; 62 g ai/ha): 0 | Plant response rating, Corn ([14]; 125 g ai/ha): 10 | Plant response rating, Soybean ([15]; 16 g ai/ha): 0 | Plant response rating, Soybean ([15]; 31 g ai/ha): 0 | Plant response rating, Soybean ([15]; 62 g ai/ha): 0 | Plant response rating, Soybean ([15]; 125 g ai/ha): 0 | Plant response rating, Nightshade ([16]; 16 g ai/ha): 0 | Plant response rating, Nightshade ([16]; 31 g ai/ha): 60 | Plant response rating, Nightshade ([16]; 62 g ai/ha): 90 | Plant response rating, Nightshade ([16]; 125 g ai/ha): 100 | Plant response rating, Pigweed ([17]; 125 g ai/ha): 0 | Plant response rating, Pigweed ([17]; 500 g ai/ha): 40 | Plant response rating, Barnyardgrass ([18]; 125 g ai/ha): 70 | Plant response rating, Barnyardgrass ([18]; 500 g ai/ha): 80 | Plant response rating, Velvetleaf ([19]; 125 g ai/ha): 20 | Plant response rating, Velvetleaf ([19]; 500 g ai/ha): 60 | Plant response rating, Crabgrass, Large ([20]; 16 g ai/ha): 85 | Plant response rating, Crabgrass, Large ([20]; 31 g ai/ha): 90 | Plant response rating, Crabgrass, Large ([20]; 62 g ai/ha): 98 | Plant response rating, Crabgrass, Large ([20]; 125 g ai/ha): 100
